Data: paper PMC9570599, “Kribbellichelins A and B, Two New Antibiotics from Kribbella sp. CA-293567 with Activity against Several Human Pathogens” (Molecules, 2022)
≈ marks a conversion by molar mass, not a printed value. Where “and” joins values, the source holds several entries; their conditions need not be identical. Identical values can stand only once. Entries after “also recorded” stand apart in the source; their conditions may differ. Like-named read-outs stand apart in the source and are kept apart here.

How the values were obtained:
C. albicans ATCC-64124 = experiment: Antifungal growth inhibition assay, C. albicans; type: cell-based, Candida albicans
Protocol: (§1) Purification fractions and purified compounds 1–3 and 5 were tested against a wide panel of antimicrobial assays for the growth inhibition of human pathogens including MRSA MB-5393, A. baumannii MB-5973, P. aeruginosa MB-5919, A. fumigatus ATCC-46645, and C. albicans ATCC-64124 as 10-point curves with 1:2 dilutions starting at 128 μg/mL in duplicate, following previously described methodologies. Most of the pathogens were acquired from the American Type Culture Collection (ATCC)(Manassas, VA, USA), except for those already present in our MEDINA bacteria collection (MB). Pathogen panel investigated was selected according to typical reference strains and procedures indicated by the […].
(§2) The antifungal assay was performed following this methodology; briefly, a thawed stock inoculum suspension from a cryovial of A. fumigatus and C. albicans was streaked onto PDA and Sabouraud Dextrose Agar medium, respectively, and suspended in RPMI-1640 modified medium and incubated at 37 °C for 24 h. Spores concentration of A. fumigatus was determined by counting in Neubauer chamber in order to dilute the culture and obtain an assay inoculum of 2.5 × 10^4 spores/mL. For C. albicans, the OD660 was adjusted to 0.25 using RPMI-1640 modified as diluent and blank. Then, a dilution from the adjusted inoculum was prepared at 1/100 to inoculate 96-well assay plates.
(§3) For the assay, 90 μL/well of the diluted inoculum was mixed with 1.6 μL/well of compound dissolved in DMSO and 8.4 μL/well of MHII or BHI medium for Gram-negative and Gram-positive strains, respectively. Vancomycin was included as an internal plate control for MRSA. A rifampicin, aztreonam, and amphotericin B dose-response curve was used as a positive control against P. aeruginosa, A. baumannii and A. fumigatus, and C. albicans, respectively. Each compound was tested as a 10-point dose-response curve by 1:2 serial dilutions in DMSO starting at 128 µg/mL in duplicate. Total growth was measured using the EnVision® (Redwood City, CA, USA) Multilabel plate reader (Perkin Elmer) with two readings, one at initial time and one after which the microorganism was incubated at 37 °C for 18–20 hours. For the A. fumigatus assay, total growth was measured with a single reading after the incubation.

MRSA MB-5393 = experiment: Gram-positive antibacterial growth inhibition assay, MRSA; type: cell-based, methicillin-resistant Staphylococcus aureus; conditions: for activity against MRSA (in words): pure compound, up to 128 µg/mL
Protocol: as §1
For Gram-positive MRSA, a thawed stock inoculum suspension from a cryovial of this microorganism was streaked onto brain heart infusion (BHI) agar plate and incubated at 37 °C overnight to obtain isolated colonies. Single colonies were inoculated into 10 mL of BHI broth medium in 250 mL Erlenmeyer flask and incubated overnight at 37 °C with shaking at 220 rpm and then diluted in order to obtain an assay inoculum of 1.1 × 10^6 CFU/mL [52].
as §3

P. aeruginosa MB-5919 = experiment: Gram-negative antibacterial growth inhibition assay, P. aeruginosa; type: cell-based, Pseudomonas aeruginosa; conditions: for maximum activity of growth inhibition plateau, P. aeruginosa: at concentrations higher than 10 µg/mL; for activity against P. aeruginosa (in words): pure compound, up to 128 µg/mL
Protocol: as §1
(§4) Gram-negative antibacterial assay was performed following this procedure; thawed stock inoculum from vials was streaked onto MHII agar plates and incubated overnight at 37 °C. Isolated colonies were selected and inoculated in 25 mL of MHII liquid growth medium in 250 mL Erlenmeyer flasks overnight at 37 °C. MHII liquid growth medium was used in a 96-well plate assay, adjusting at 5 × 10^5 colony forming units (cfu)/mL (OD600 nm).
as §3

A. fumigatus ATCC-46645 = experiment: Antifungal growth inhibition assay, A. fumigatus; type: cell-based, Aspergillus fumigatus; conditions: for inhibition at 7.2 µg/mL / IC50: Aspergillus fumigatus; for inhibition at 7.2 µg/mL: at 7.2 µg/mL (optimal concentration), atypical profile, Eagle effect, read-out: maximum inhibition against A. fumigatus; for decreasing inflection point against A. fumigatus: less inhibition at higher concentrations (Eagle effect)
Protocol: as §1, §2, §3

[1] = test system: human hepatoma cell line HepG2 (ATCC HB-8065); experiment: MTT cytotoxicity bioassay; type: cell-based; conditions: 72 h; for cytotoxicity against HepG2 (in words): up to 40 µg/mL
Protocol: Pure compounds were assayed against the human hepatoma cell line HepG2 (ATCC HB-8065) in an MTT test as 20-point curves with 1:2 dilutions starting at 40 μg/mL in triplicate. Cells were seeded at 10.000 cells/well in a 96-well plate (Corning 96-well TC-treated microplates) for 24 h and after addition of compounds 1–3 and 5 plates were incubated for 72 h. MMS (methylmethanesulfonate, Sigma-Aldrich, 4 mM) was used as the positive control, and DMSO 0.5% as the negative control. After addition of MMT dye (thiazolyl blue tetrazoliumbromide, ACROS Organics), cells were incubated for 2–3 h and supernatant was removed. Resulting formazan crystals were finally dissolved by means of 100 µL DMSO (100%) and absorbance was measured at 570 nm. The obtained data was analyzed using Genedata Screener software (Genedata, Inc., Basel, Switzerland) and Prim 9.4.1 software, from GraphPad was used for titrations representation.

A. baumannii MB-5973 = experiment: Gram-negative antibacterial growth inhibition assay, A. baumannii; type: cell-based, Acinetobacter baumannii; conditions: for maximum activity of growth inhibition plateau, A. baumannii: at concentrations higher than 10 µg/mL; for activity against A. baumannii (in words): pure compound, up to 128 µg/mL
Protocol: as §1, §4, §3

S. aureus = test system: S. aureus; set-up: method as in PMID 8436549; conditions: previously reported; cited from earlier work
Streptococcus faecalis = test system: Streptococcus faecalis; set-up: method as in PMID 8436549; conditions: previously reported; cited from earlier work
Bacillus subtilis = test system: Bacillus subtilis; set-up: method as in PMID 8436549; conditions: previously reported; cited from earlier work
Saccharomyces cerevisiae = test system: Saccharomyces cerevisiae; set-up: method as in PMID 28074052; conditions: previously reported; cited from earlier work

| Compound | activity against MRSA (in words) (MRSA MB-5393) | maximum activity of growth inhibition plateau, P. aeruginosa (P. aeruginosa MB-5919) | activity against P. aeruginosa (in words) (P. aeruginosa MB-5919) | inhibition at 7.2 µg/mL (A. fumigatus ATCC-46645; ATCC46645) | decreasing inflection point against A. fumigatus (A. fumigatus ATCC-46645) | cytotoxicity against HepG2 (in words) [1] | maximum activity of growth inhibition plateau, A. baumannii (A. baumannii MB-5973) | activity against A. baumannii (in words) (A. baumannii MB-5973) | also measured |
| --- | --- | --- | --- | --- | --- | --- | --- | --- | --- |
| COC(=O)c1cc(O)c(O)c(C(=O)NCCC(=O)N[C@@H](CCCN(O)C(=O)[C@H](CO)NC(=O)CCNC(=O)c2nc(C(=O)OC)cc(O)c2O)C(=O)O)n1 [Compound 1, kribbellichelin A] | no activity | 30% | minor inhibitory properties | 40% | ~50 µg/mL | nor significant cytotoxic activity; also recorded: no relevant cytotoxicity | 45% | minor inhibitory properties | IC50 versus C. albicans (C. albicans ATCC-64124; C. albicans ATCC-64124, 10-point curve from 128 µg/mL, duplicate): 11.72 µg/mL (≈ 15.3 µM); IC50 (C. albicans ATCC-64124; C. albicans ATCC-64124, molar value in brackets, read-out: IC50 versus C. albicans): 15.3 µM; IC50 (C. albicans ATCC-64124; Candida albicans, ATCC64124, C. albicans ATCC-64124, 10-point curve from 128 µg/mL, duplicate, read-out: IC50 versus C. albicans): 11.7 µg/mL; IC50 (C. albicans ATCC-64124; Candida albicans, ATCC64124, C. albicans ATCC-64124, molar value in brackets, read-out: IC50 versus C. albicans): 15.2 µM |
| CC(C)[C@H]1C(=O)OC[C@@H](NC(=O)c2nc3ccccc3cc2O)C(=O)N2CCCC[C@H]2C(=O)NCC(=O)N(C)CC(=O)N(C)[C@@H](C(C)C)C(=O)OC[C@@H](NC(=O)c2nc3ccccc3cc2O)C(=O)N2CCCC[C@@H]2C(=O)NCC(=O)N(C)CC(=O)N1C [Compound 3, sandramycin] | – | – | no antibacterial activity | – | – | – | – | no antibacterial activity | IC50 (C. albicans ATCC-64124; Candida albicans, ATCC64124, read-out: IC50 versus C. albicans): 7.55 µg/mL and 6.19 µM; IC50 (MRSA MB-5393; Staphylococcus aureus, MRSA, read-out: IC50 versus MRSA MB-5393): 0.31 µg/mL and 250 nM; IC50 (A. fumigatus ATCC-46645; ATCC46645, read-out: IC50 against A. fumigatus): 5.72 µg/mL and 4.69 µM; antibiotic activity versus S. aureus (in words) (S. aureus): strong antibiotic activity; antibiotic activity versus Streptococcus faecalis (in words) (Streptococcus faecalis): strong antibiotic activity; ED50 cytotoxic activity against HepG2 ([1]; molar value in brackets): 0.00129 µM; antibiotic activity versus Bacillus subtilis (in words) (Bacillus subtilis): strong antibiotic activity |
| COC(=O)c1cc(O)c(O)c(C(=O)NCCC(=O)N[C@@H](CCCN(O)C(=O)[C@H](CO)NC(=O)CCNC(=O)c2nc(C(=O)OC)cc(O)c2O)C(=O)OC)n1 [Compound 2, kribbellichelin B] | no activity | 30% | minor inhibitory properties | 40% | ~50 µg/mL | nor significant cytotoxic activity; also recorded: no relevant cytotoxicity | 45% | minor inhibitory properties | – |
| CC(C)CCCCCCCCCCCCCOC[C@@H](O)CO[C@H]1O[C@H](C(=O)O)[C@@H](O[C@H]2O[C@H](CO)[C@@H](O)[C@H](O)[C@H]2O)[C@H](O)[C@H]1O [Compound 5, kribelloside C] | no activity | – | no activity | – | – | no relevant cytotoxicity | – | no activity | activity against C. albicans (in words) (C. albicans ATCC-64124; pure compound, up to 128 µg/mL): no activity; also recorded: not observed; IC50 (A. fumigatus ATCC-46645; ATCC46645, A. fumigatus ATCC-46645, read-out: IC50 against A. fumigatus): 13.7 µg/mL (≈ 20.8 µM); antifungal activity versus Saccharomyces cerevisiae (in words) (Saccharomyces cerevisiae): interesting activities as an antifungal agent |
